Results from US20260183316A1, “CANNABICHROMENE-TYPE CANNABINOID COMPOSITIONS, METHODS AND USES THEREOF” (Cronos Group Inc., priority 2022, published 2026).
Values joined by “and” are separate entries in the source; they are usually repeats but may differ in a detail not shown here. Equal values may be shown once.

Key:
[1] = Pharmacokinetic measurement of CBC in blood (HPLC-MS/MS); settings: analyte CBC
C57BL/6 mice [2] = test: Nociception in the warm water tail flick assay, tetrad; format: in vivo; settings: for ED50: Mus musculus, po, 20 min, tail flick 52° C., read-out: Pain relief ED50 (95% C.I.); for ED50 / Pain relief Emax ± S.E.M.: 20 min after 0.3-30 mg/kg p.o.; for Pain relief Emax ± S.E.M.: tail flick % MPE 20 sec; for dose-dependent reduction in pain sensation: warm water tail flick 20 minutes after administration, 0.3-30 mg/kg p.o.
Protocol: (§1) Female and male C57BL/6 mice between 8 and 12 weeks of age were used for these studies. Animals were group housed at the Laboratory Animal Services Unit (LASU) at the University of Saskatchewan (5 mice/cage for females, 3 mice/cage for males) with a standard 12:12 light-dark cycle, ad libitum access to food and water, and environmental enrichment. All compounds were prepared in a vehicle composed of ethanol and kolliphor in saline (1:1:8) for i.v. tail vein injections or olive oil for oral gavage (p.o.) at the doses indicated in description of the figures. Compounds were administered at the doses indicated in mg/kg body weight, with body weights being measured on the same day as drug administration. Experimenters were blinded to treatment for all assessments and analyses. Animals were purchased from Charles River Labs (Senneville, QC), rather than bred, to reduce animal numbers. At the end of experiments, mice were euthanized via isoflurane overdose and cardiac puncture. In all cases, experiments were performed with the approval of the University Animal Care Committee (UACC) at the University of Saskatchewan (Animal Use Protocol #20200043) and in keeping with the guidelines of the Canadian Council on Animal Care (CCAC).
(§2) Mice were assessed in the ‘tetrad’ battery of physiological and behavioural assessments. This included, in the following order: a bar holding assessment of catalepsy, rectal thermometer assessment of body temperature, a test of nociception in the warm water tail flick assay, and a test of locomotion and anxiety in the open field test (OFT). The precise timing of each measurement are stated in description of the figures. The same animals were used for all four measures of the tetrad.
Activation of CB1R is associated with elevated tail-flick latency (i.e. less nociception as indicated by the mouse keeping their tail in the water longer).

C57BL/6 mice [3] = test: Open field test (OFT): locomotion and time in central quadrant; format: in vivo; settings: for dose-dependent reduction in movement in the OFT / time spent in the center of the OFT (anxiety-reducing effect): 30 minutes after administration, 0.3-30 mg/kg p.o.; for ED50: po, 0.5 h; for Movement Emax ± S.E.M.: OFT distance in 5 minutes
Protocol: as §1, §2
Locomotion was measured in the open field test (OFT) after compound administration. Mice were placed in the centre of an open chamber measuring 1 m×1 m for 5 minutes. Total distance travelled and time spent in the central quadrant of the field are recorded on a video camera, and the video analyzed in EthoVision XT (Noldus Information Technology Inc., Leesburg, VA).

C57BL/6 mice [4] = test: Catalepsy in the bar (ring) holding assay, tetrad; format: in vivo; settings: for Lethargy Emax ± S.E.M.: catalepsy % MPE 60 sec, 5 min after 0.3-30 mg/kg p.o.; for dose-dependent catalepsy: ring holding assay 5 minutes after treatment, 0.3-30 mg/kg p.o.
Protocol: as §1, §2
Catalepsy was assessed in the bar holding assay after compound administration with mice placed so that their forepaws clasped a 0.7-cm ring clamp 4.5 cm above the surface of the testing space. The length of time the ring was held was recorded up to 60 sec (i.e., percent maximum possible effect [MPE] 60 seconds) with the trial ending if the mouse turned its […] or body or made three consecutive escape attempts. Activation of CB1R is associated with increased catalepsy.

C57BL/6 mice [5] = test: Body temperature by rectal thermometer, tetrad; format: in vivo; settings: for dose-dependent hypothermia: 10 min after administration, 0.3-30 mg/kg p.o.; for Body temperature Emax ± S.E.M.: change in body temperature 10 min after 0.3-30 mg/kg p.o.
Protocol: as §1, §2
Body temperature was measured after compound administration by using a rectal thermometer. Activation of CB1R is associated with reduced body temperature.

C57BL/6 mice [6] = test: Elevated plus maze (EPM), modelled anxiety; format: in vivo; settings: 10 mg/kg p.o., 30 minutes after treatment; for time spent in the closed arms of the EPM: post-hoc no differences
Protocol: (§3) In addition to the physiological assessment of the tetrad, mice were subjected to several behavioural assessments detailed here. These experiments followed a set timeline beginning 30 minutes after compound administration, based on an approximation that the maximum blood concentration of drug occurred 30-60 minutes after animals had received oral gavage. In these experiments the same type of mice were used for elevated plus maze, y-maze, and forced swim test back-to-back-to-back; however, this was a separate cohort of mice from those used in tetrad or PK experiments.
Modelled anxiety—the elevated plus maze: Mice were placed in the centre space of an elevated plus maze (EPM) standing 45 cm above the floor and having 2 closed-walled arms and 2 open arms each measuring 45 cm long. Mice were placed facing an open arm and their movement recorded for 5 minutes beginning 30 minutes after drug administration. Total distance travelled, arm entries, and time spent in each arm was recorded on a video camera and scored by an individual blinded to treatment group.

[7] = oral gavage once daily for 14 days, cited from earlier work
Long Evans rats = settings: CBC 3-30 mg/kg following D9-THC 3 mg/kg intraperitoneal; cited from earlier work
rodents = settings: intravenously administered, high doses (30 and 100 mg/kg); cited from earlier work
C57BL/6 mice [8] = test: y-maze, modelled exploratory behaviour and cognition; format: in vivo; settings: 10 mg/kg p.o., 40 min after administration
Protocol: as §3
Modelled exploratory behaviour and cognition—the y-maze: The y-maze consists of three […] long×15 cm wide arms equally spaced 120° apart. Mice were allowed to habituate to the y-maze with one arm closed off (the novel arm) for 15 minutes 1 day prior to the experiment. On testing day, mice were placed in the centre space the y-maze facing the novel arm. Movement and arm entries were recorded for 5 min beginning 40 minutes after drug administration. Total distance travelled, arm entries, and % correct alternations between each arm were recorded on a video camera and scored by an individual blinded to treatment group.

C57BL/6 mice [9] = test: Forced swim test (FST), modelled behavioural despair and resiliency; format: in vivo; settings: 10 mg/kg p.o., 50 min after administration
Protocol: as §3
Modelled behavioural despair and resiliency—the forced swim test: Mice were placed in 800 mL of 22° C. water in a clear beaker with a 10 cm diameter such that the depth of water was approximately 10-11 cm. Mice were allowed to swim and their movement recorded for 5 minutes beginning 50 minutes after drug administration. Time spent swimming and time spent immobile was recorded on a video camera and scored by an individual blinded to treatment group.

[10] = Pharmacokinetic measurement of THC in blood (HPLC-MS/MS); settings: analyte THC
dogs = settings: cited from earlier work
[11] = Mus musculus, OFT locomotion 30 min after 0.3-30 mg/kg p.o., read-out: Movement ED50 (95% C.I.)
[12] = time in central quadrant of OFT, 30 min after 0.3-30 mg/kg p.o.

CCCCCc1cc(O)c2c(c1)OC(C)(CCC=C(C)C)C=C2 (racemic) [CBC, cannabichromene]
F ([1]; 10 mg/kg i.v., Combined): 100% | F ([1]; 10 mg/kg i.v., Female): 100% | F ([1]; 10 mg/kg i.v., Male): 100% | F ([1]; 10 mg/kg p.o., Combined): 39% | F ([1]; 10 mg/kg p.o., Female): 53% | F ([1]; 10 mg/kg p.o., Male): 27% | ED50 (C57BL/6 mice [2]): > 30 mg/kg | Pain relief Emax ± S.E.M. (C57BL/6 mice [2]): 37 ± 13% | dose-dependent reduction in pain sensation (C57BL/6 mice [2]): dose-dependent pain-relieving effects | dose-dependent reduction in movement in the OFT (C57BL/6 mice [3]): dose-dependent reduction in movement | time spent in the center of the OFT (anxiety-reducing effect) (C57BL/6 mice [3]): anxiety-reducing effect | ED50 (C57BL/6 mice [3]; [11]): 35 mg/kg | Movement Emax ± S.E.M. (C57BL/6 mice [3]; 30 min after 0.3-30 mg/kg p.o.): 1,600 ± 340 cm | Anxiety-reduction Emax ± S.E.M. (C57BL/6 mice [3]; [12]): 32 ± 7.2 s | Lethargy Emax ± S.E.M. (C57BL/6 mice [4]): 1.1 ± 0.16 % | dose-dependent catalepsy (C57BL/6 mice [4]): no dose-dependent catalepsy | dose-dependent hypothermia (C57BL/6 mice [5]): no dose-dependent hypothermia | Body temperature Emax ± S.E.M. (C57BL/6 mice [5]): 0.53 ± 0.27 °C | open arm entries in the EPM (C57BL/6 mice [6]): trend toward CBC producing more open arm entries than other groups, this was not statistically significant | time spent in the closed arms of the EPM (C57BL/6 mice [6]): trend toward less time spent in the closed arms | concentrations in brain tissue [7]: highest concentrations in brain tissue | maximum observed concentration and AUC in plasma ([7]; of the four cannabinoids tested): highest maximum observed concentration and AUC | perceptual effects of D9-THC (Long Evans rats): did notsignificantly alter the perceptual effects of D9-THC | response rates (Long Evans rats): decrease response rates | tetrad effects (rodents): produced locomotor suppression, catalepsy, and hypothermia consistently at high doses | % correct alternations in the y-maze (C57BL/6 mice [8]): increased % correct alternations compared to vehicle

CCCCCc1cc(O)c2c(c1)OC(C)(C)[C@@H]1CCC(C)=C[C@@H]21 [THC, tetrahydrocannabinol]
ED50 (C57BL/6 mice [2]): ~3.8 mg/kg | Pain relief Emax ± S.E.M. (C57BL/6 mice [2]): 57% and 57 ± 16% | dose-dependent reduction in pain sensation (C57BL/6 mice [2]): dose-dependent reduction in pain sensation | dose-dependent reduction in movement in the OFT (C57BL/6 mice [3]): dose-dependent reduction in movement | time spent in the center of the OFT (anxiety-reducing effect) (C57BL/6 mice [3]): dose-dependent increase in the total time spent in the center of the OFT | ED50 (C57BL/6 mice [3]; [11]): ~6.6 mg/kg | ED50 (C57BL/6 mice [3]; Mus musculus, time in central quadrant of OFT, 30 min after 0.3-30 mg/kg p.o., read-out: Anxiety-reduction ED50 (95% C.I.)): > 30 mg/kg | Emax (C57BL/6 mice [3]; Mus musculus, OFT, versus vehicle-treated level of approximately 3,300 cm in 5 minutes, read-out: reduction in movement at maximum effect): 48% | Movement Emax ± S.E.M. (C57BL/6 mice [3]; 30 min after 0.3-30 mg/kg p.o.): 1,700 cm and 1,700 ± 980 cm | Anxiety-reduction Emax ± S.E.M. (C57BL/6 mice [3]; [12]): 81 ± 72 s | ED50 (C57BL/6 mice [4]; Mus musculus, po, 5 min, catalepsy 5 min after 0.3-30 mg/kg p.o., male and female combined, read-out: Lethargy ED50 (95% C.I.)): ~12 mg/kg | Lethargy Emax ± S.E.M. (C57BL/6 mice [4]): 76% and 76 ± 16% | dose-dependent catalepsy (C57BL/6 mice [4]): increasing catalepsy in a dose-dependent manner | time swimming and time immobile in the FST compared to vehicle (C57BL/6 mice [9]): further suppressed swimming time and increased immobile time | dose-dependent hypothermia (C57BL/6 mice [5]): dose-dependent hypothermia | ED50 (C57BL/6 mice [5]; Mus musculus, po, 10 min, 10 min after 0.3-30 mg/kg p.o., read-out: Body temperature ED50 (95% C.I.)): ~0.2 mg/kg | Body temperature Emax ± S.E.M. (C57BL/6 mice [5]): −2.8 °C and −2.8 ± 0.20 °C | overall movement in the EPM (C57BL/6 mice [6]): reduced overall movement in the EPM, although this change was not statistically significant | time in the center of the EPM (C57BL/6 mice [6]): more time in the center compared to 1:6.92 (CBC:THC) | time in the open arms of the EPM (C57BL/6 mice [6]; not statistically significant): appeared to suppress time in the open arms | time spent in the closed arms of the EPM (C57BL/6 mice [6]): trend toward less time spent in the closed arms | F ([10]; 10 mg/kg i.v., Combined): 100% | F ([10]; 10 mg/kg i.v., Female): 100% | F ([10]; 10 mg/kg i.v., Male): 100% | F ([10]; 10 mg/kg p.o., Combined): 15% | F ([10]; 10 mg/kg p.o., Female): 33% | F ([10]; 10 mg/kg p.o., Male): 3.7% | % correct alternations in the y-maze (C57BL/6 mice [8]): appeared to reduce correct alternations | overall locomotion in the y-maze (C57BL/6 mice [8]): reduced overall locomotion | total arm entries in the y-maze (C57BL/6 mice [8]): lower

CCCCCc1cc(OC(C)=O)c2c(c1)OC(C)(C)[C@@H]1CCC(C)=C[C@@H]21 [THC-OAc, tetrahydrocannabinol-o-acetate]
degree of ataxia compared with Δ9-THC (dogs): 2 fold
